According to ChEMBL document CHEMBL1124803, “Evolution of a series of peptidoleukotriene antagonists: synthesis and structure/activity relationships of 1,3,5-substituted indoles and indazoles” (J Med Chem, 1990):
Calls of active or inactive are those of the source. The calls are words filed in the database; no cut-off is given here.

What was measured:
[1] = molecular target: T1, Cysteinyl leukotriene receptor 1 (Cavia porcellus, UniProt Q2NNR5); assay: Displacement of [3H]LTD4 on guinea pig lung parenchymal membranes; format: tissue-based, Lung parenchyma
T1 sequence (Q2NNR5 whole entry): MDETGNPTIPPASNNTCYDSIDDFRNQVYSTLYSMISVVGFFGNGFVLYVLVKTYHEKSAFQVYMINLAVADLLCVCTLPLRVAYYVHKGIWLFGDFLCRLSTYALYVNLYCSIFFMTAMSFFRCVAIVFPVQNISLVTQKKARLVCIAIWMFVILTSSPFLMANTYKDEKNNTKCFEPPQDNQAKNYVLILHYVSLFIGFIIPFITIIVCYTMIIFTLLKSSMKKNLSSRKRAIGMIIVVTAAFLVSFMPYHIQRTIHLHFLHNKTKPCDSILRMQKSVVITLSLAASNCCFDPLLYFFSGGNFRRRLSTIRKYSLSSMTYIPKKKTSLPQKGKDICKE

Cavia porcellus [2] = assay: Effective dose of compound was measured in vivo for blocking LTD4 induced dyspnea after po administration.; format: functional
[3] = molecular target: Cysteinyl leukotriene receptor 1 (Cavia porcellus); assay: Inhibition constant for displacement of [3H]LTD4 on guinea pig lung parenchymal membranes.
[4] = test system: Cysteinyl leukotriene receptor 1 (Cavia porcellus); assay: Dissociation constant (Kb) against LTD4
Cavia porcellus [5] = species on record: Cavia porcellus; assay: Inhibition of peptidoleukotriene LTE4 induced contraction of guinea pig tracheal spirals at the concentration of 1 uM.; format: functional; conditions: Trachea
[6] = molecular target: T1, Cysteinyl leukotriene receptor 1; assay: Inhibition constant for displacement of [3H]LTD4 on guinea pig lung parenchymal membranes.; format: tissue-based, Lung parenchyma
Cavia porcellus [7] = species on record: Cavia porcellus; assay: Inhibition of peptidoleukotriene LTE4 induced contraction of guinea pig tracheal spirals at the concentration of 100 uM.; format: functional; conditions: Trachea
Cavia porcellus [8] = assay: Percent protection of animals against aerosolized LTD4-induced dyspnea at the concentration of 1.8 mg/kg.; format: functional
Cavia porcellus [9] = assay: Percent protection of animals against aerosolized LTD4-induced dyspnea at the concentration of 0.6 mg/kg; Not significant; format: functional, organism-based; design: dose 0.6 mg/kg
Cavia porcellus [10] = assay: Percent protection of animals against aerosolized LTD4-induced dyspnea at the concentration of 0.6 mg/kg.; format: functional; conditions: inhaled or nasal
Cavia porcellus [11] = species on record: Cavia porcellus; assay: Inhibition of peptidoleukotriene LTE4 induced contraction of guinea pig tracheal spirals at the concentration of 3.3 uM; Not significant; format: functional; conditions: Trachea
Cavia porcellus [12] = species on record: Cavia porcellus; assay: Inhibition of peptidoleukotriene LTE4 induced contraction of guinea pig tracheal spirals at the concentration of 3.3 uM.; format: functional; conditions: Trachea

Compound	Ki [3] [nM]	pKB [4]	other results
COc1cc(C(=O)O)ccc1Cc1nn(C)c2ccc(NC(=O)OC3CCCC3)cc12	–	–	Ki [1]: 160 nM
COc1cc(C(=O)NS(=O)(=O)c2ccccc2)ccc1Cc1cn(C)c2ccc(NC(=O)OC3CCCC3)cc12	0.8	9.69	ED50 (Cavia porcellus [2]): 2.5 mg/kg
C=CCn1cc(Cc2ccc(C(=O)O)cc2OC)c2cc(NC(=O)CCCCC)ccc21	–	–	inhibition at 1 µM (Cavia porcellus [5]): 43%
COc1cc(C(=O)NS(=O)(=O)c2ccccc2Br)ccc1Cc1cn(C)c2ccc(NC(=O)CC3CCCC3)cc12	0.5	10.1	–
COc1cc(C(=O)O)ccc1Cc1c[nH]c2ccc(NC(=O)OC3CCCC3)cc12	–	7.32	Ki [6]: 236 nM
COc1cc(C(=O)O)ccc1Cn1ncc2ccc(NC(=O)OC3CCCC3)cc21	–	–	Ki [1]: 80 nM
CCCn1cc(Cc2ccc(C(=O)O)cc2OC)c2cc(NC(=O)OC3CCCC3)ccc21	–	7.72	Ki [6]: 58 nM
CCCn1cc(Cc2ccc(C(=O)NS(=O)(=O)c3ccccc3)cc2OC)c2cc(NC(=O)NC3CCCC3)ccc21	–	9.2	Ki [1]: 0.5 nM
COCCn1cc(Cc2ccc(C(=O)O)cc2OC)c2cc(NC(=O)OC3CCCC3)ccc21	–	–	Ki [6]: 41 nM
COc1cc(C(=O)NS(=O)(=O)c2ccccc2)ccc1Cc1cn(C)c2ccc(NC(=O)NC3CCCC3)cc12	–	–	ED50 (Cavia porcellus [2]): ~35 mg/kg; Ki [1]: 0.8 nM
CCCc1c(OCCCCc2nnn[nH]2)ccc(C(C)=O)c1O [TOMELUKAST]	–	–	Ki [1]: 2820 nM
CCCn1cc(Cc2ccc(C(=O)O)cc2OC)c2cc(NC(=O)CC3CCCC3)ccc21	84	–	–
COc1cc(C(=O)O)ccc1Cn1ccc2ccc(NC(=O)CC3CCCC3)cc21	–	7.68	Ki [1]: 200 nM
COc1cc(C(=O)O)ccc1Cc1cn(C)c2ccc(NC(=O)OC3CCCC3)cc12	–	7.84	inhibition at 100 µM (Cavia porcellus [7]): 75%; Ki [6]: 157 nM
COc1cc(C(=O)NS(=O)(=O)c2ccccc2C)ccc1Cc1nn(C)c2ccc(NC(=O)OC3CCCC3)cc12	0.3	–	ED50 (Cavia porcellus [2]): 0.5 mg/kg
CCCC(CC)C(=O)Nc1ccc2c(c1)c(Cc1ccc(C(=O)O)cc1OC)cn2C (stereo unspecified)	–	–	Ki [6]: 1830 nM
COc1cc(C(=O)O)ccc1Cc1cn(C)c2ccc(NC(=O)CC3CCCC3)cc12	–	–	inhibition at 100 µM (Cavia porcellus [7]): 94%; Ki [6]: 80 nM
COc1cc(C(=O)NS(=O)(=O)c2ccccc2C)ccc1Cc1cn(C)c2ccc(NC(=O)CC3CCCC3)cc12	–	9.64	ED50 (Cavia porcellus [2]): 0.2 mg/kg; Ki [1]: 0.5 nM
COc1cc(C(=O)NS(=O)(=O)c2ccccc2)ccc1Cc1nn(C)c2ccc(NC(=O)OC3CCCC3)cc12	0.25	–	–
COc1cc(C(=O)NS(=O)(=O)c2ccccc2C)ccc1Cc1cn(C)c2ccc(NC(=O)NC3CCCC3)cc12	–	9.31	ED50 (Cavia porcellus [2]): 0.9 mg/kg; Ki [1]: 1.4 nM
COc1cc(C(=O)NS(=O)(=O)C(C)C)ccc1Cc1cn(Cc2cccc(C#N)c2)c2ccc(NC(=O)CC3CCCC3)cc12	6.8	9.28	–
COCCn1cc(Cc2ccc(C(=O)NS(=O)(=O)c3ccccc3)cc2OC)c2cc(NC(=O)OC3CCCC3)ccc21	0.2	9.39	ED50 (Cavia porcellus [2]): 1.1 mg/kg
COc1cc(C(=O)O)ccc1Cc1cn(Cc2cccc(C#N)c2)c2ccc(NC(=O)CC3CCCC3)cc12	10	8.55	–
COc1cc(C(=O)NS(C)(=O)=O)ccc1Cc1cn(Cc2cccc(C#N)c2)c2ccc(NC(=O)CC3CCCC3)cc12	5.6	9	–
COc1cc(C(=O)NS(=O)(=O)c2ccccc2)ccc1Cc1cn(C2CCCC2)c2ccc(NC(=O)OC3CCCC3)cc12	67	7.84	–

Compound	Ki [3] [nM]	pKB [4]	other results
COc1cc(C(=O)NS(=O)(=O)c2ccccc2Cl)ccc1Cc1nn(C)c2ccc(NC(=O)CC3CCCCC3)cc12	0.25	–	protection at 1.8 mg/kg (Cavia porcellus [8]): 71%; ED50 (Cavia porcellus [9]): inactive
COc1cc(C(=O)O)ccc1Cn1ccc2ccc(NC(=O)OC3CCCC3)cc21	–	7.8	Ki [1]: 160 nM
COc1cc(C(=O)NS(=O)(=O)c2ccccc2Cl)ccc1Cc1nn(C)c2ccc(NC(=O)CC3CCCC3)cc12	0.3	–	protection at 0.6 mg/kg (Cavia porcellus [10]): 48%
COc1cc(C(=O)O)ccc1Cn1ncc2ccc(NC(=O)CC3CCCC3)cc21	–	–	Ki [1]: 50 nM
COc1cc(C(=O)O)ccc1Cc1cn(Cc2ccccc2)c2ccc(NC(=O)CC3CCCC3)cc12	70	–	–
COc1cc(C(=O)NS(=O)(=O)c2ccccc2Cl)ccc1Cc1nn(C)c2ccc(NC(=O)OC3CCCC3)cc12	0.3	–	ED50 (Cavia porcellus [2]): 1 mg/kg
CCCCCC(=O)Nc1ccc2c(c1)c(Cc1ccc(C(=O)O)cc1OC)cn2Cc1ccccc1	–	–	inhibition at 1 µM (Cavia porcellus [5]): 38%
CCCn1cc(Cc2ccc(C(=O)NS(=O)(=O)c3ccccc3)cc2OC)c2cc(NC(=O)OC3CCCC3)ccc21	–	8.44	ED50 (Cavia porcellus [2]): 1 mg/kg
CCn1cc(Cc2ccc(C(=O)O)cc2OC)c2cc(NC(=O)CC3CCCC3)ccc21	71	–	–
COc1cc(C(=O)O)ccc1Cc1cn(C)c2ccc(NC(=O)NC3CCCC3)cc12	–	–	Ki [6]: 1120 nM
COc1cc(C(=O)NS(=O)(=O)c2ccccc2)ccc1Cc1c[nH]c2ccc(NC(=O)OC3CCCC3)cc12	1.4	9.8	–
CCCCCC(=O)Nc1ccc2c(c1)c(Cc1ccc(C(=O)O)cc1OC)cn2CC(=O)O	–	–	inhibition (Cavia porcellus [11]): inactive
COc1cc(C(=O)NS(=O)(=O)c2ccccc2C)ccc1Cc1nn(C)c2ccc(NC(=O)CC3CCCC3)cc12	0.3	–	protection at 1.8 mg/kg (Cavia porcellus [8]): 100%; protection at 0.6 mg/kg (Cavia porcellus [10]): 47%
COc1cc(C(=O)NS(=O)(=O)c2ccccc2Br)ccc1Cc1nn(C)c2ccc(NC(=O)OC3CCCC3)cc12	0.3	–	ED50 (Cavia porcellus [2]): 1.1 mg/kg
COc1cc(C(=O)O)ccc1Cc1nn(C)c2ccc(NC(=O)CC3CCCC3)cc12	132	–	–
COc1cc(C(=O)NS(=O)(=O)c2ccccc2C)ccc1Cc1cn(C)c2ccc(NC(=O)OC3CCCC3)cc12 [ZAFIRLUKAST]	–	–	ED50 (Cavia porcellus [2]): 0.3 mg/kg
COc1cc(C(=O)NS(=O)(=O)c2ccccc2Cl)ccc1Cc1cn(C)c2ccc(NC(=O)CC3CCCC3)cc12	0.3	9.85	–
COc1cc(C(=O)NS(=O)(=O)c2ccccc2C)ccc1Cc1c[nH]c2ccc(NC(=O)CC3CCCC3)cc12	–	9.69	ED50 (Cavia porcellus [2]): 1.3 mg/kg; Ki [1]: 1 nM
COc1cc(C(=O)O)ccc1Cc1cn(CC2CC2)c2ccc(NC(=O)OC3CCCC3)cc12	57	–	–
COc1cc(C(=O)O)ccc1Cc1cn(C2CCCC2)c2ccc(NC(=O)OC3CCCC3)cc12	53	7.67	–
COc1cc(C(=O)NS(=O)(=O)c2ccccc2Cl)ccc1Cc1cn(C)c2ccc(NC(=O)NC3CCCC3)cc12	0.7	10.2	–
CCCCCC(=O)Nc1ccc2[nH]cc(Cc3ccc(C(=O)O)cc3OC)c2c1	–	–	inhibition at 3.3 µM (Cavia porcellus [12]): 64%
COc1cc(C(=O)NS(=O)(=O)c2ccccc2)ccc1Cc1cn(C)c2ccc(NC(=O)CC3CCCC3)cc12	–	9.8	ED50 (Cavia porcellus [2]): 1 mg/kg; Ki [1]: 0.3 nM
COc1cc(C(=O)NS(=O)(=O)c2ccccc2Cl)ccc1Cc1nn(C)c2ccc(NC(=O)NC3CCC3)cc12	0.1	–	ED50 (Cavia porcellus [2]): 1 mg/kg
CCCCCC(=O)Nc1ccc2c(c1)c(Cc1ccc(C(=O)O)cc1OC)cn2C	–	–	inhibition at 1 µM (Cavia porcellus [5]): 77%; Ki [6]: 1900 nM
